Assays:
S180 solid tumour = assay: antitumour activity against S180 solid tumour in mice (T/C); format: in vivo; settings: S180, @ 10 mg/Kg, carrier water, intraperitoneal
Method: (§1) Complexes according to the invention were tested for antitumour activity against L-1210 leukaemia, ADJ/PC6A tumour or S180 solid tumour in mice. In the results which follow, dosages are quoted in mg/Kg body weight and the evaluation of effectiveness (% T/C) against L1210 is calculated as the median survival time of treated mice divided by the median survival time of untreated (control) mice expressed as a percentage. Thus a % T/C of 100 indicates no activity and a % T/C of greater than or equal to 125 is considered to be indicative of significant antitumour activity.
(§2) Against a solid tumour, the % T/C is a measure of tumour regression and is the percentage of tumour weight in treated mice to that in control mice. Against ADJ/PC6A and S180, several dose levels were given and ranged from lethal to non-tumour inhibitory, allowing the calculation of LD50 and ID90 (minimum dose to cause 90% tumour inhibition) in one experiment. The ratio LD50 /ID90 is the therapeutic index and is a measure of the selectivity of the compound as an anti-tumour agent. […]

L-1210 leukaemia = assay: antitumour activity against L1210 leukaemia in mice (% T/C); format: in vivo; settings: intraperitoneal, median survival treated/control
Method: as §1, §2

ADJ/PC6A tumour = assay: antitumour activity against ADJ/PC6A tumour in mice (ID90, LD50, therapeutic index); format: in vivo; settings: intraperitoneal single dose in arachis oil
Method: Complexes according to the invention were tested for antitumour activity against L-1210 leukaemia, ADJ/PC6A tumour or S180 solid tumour in mice. […] Thus a % T/C of 100 indicates no activity and a % T/C of greater than or equal to 125 is considered to be indicative of significant antitumour activity.
Against a solid tumour, the % T/C is a measure of tumour regression and is the percentage of tumour weight in treated mice to that in control mice. Against ADJ/PC6A and S180, several dose levels were given and ranged from lethal to non-tumour inhibitory, allowing the calculation of LD50 and ID90 (minimum dose to cause 90% tumour inhibition) in one experiment. The ratio LD50 /ID90 is the therapeutic index and is a measure of the selectivity of the compound as an anti-tumour agent. All compounds were administered intraperitoneally as a single dose suspended in arachis oil.

stability in solution = format: physicochemical
Method: cis-[PtI2 (n-C4 H9 NH2)2 ] (120 g, 0.20 mol) was slurried with a warm solution of silver nitrate (66 g, 0.38 mol) in water (200 ml). The mixture was stirred for 3 hours during which time the yellow suspension turned pale grey. The mixture was then treated with charcoal, stirred and filtered through a porosity 4 sinter. The residue was washed once with 30 ml of water and the washings were combined with the filtrate (total volume 300 ml).
Cis-[PtI2 (n-C3 H7 NH2)2 ] (127 g, 0.22 mol) was slurried with a warm (50° C.) solution of silver nitrate (73 g, 0.43 mol) in 130 mls of water. The mixture was stirred for 4 hours during which time the yellow suspension turned dark grey. The mixture was then treated with charcoal, stirred and filtered through a porosity 4 sinter. The residue was triturated with water (20 mls) and the filtrates combined to give a clear orange solution (total volume 150 mls).
The crude oxalto complex was recrystallised as follows. The product was added to a stirred, vigorously boiling aqueous solution of 0.1 M potassium oxalate (800 ml). The solution was boiled for 30 minutes to effect dissolution during which time the solution darkened owing to some platinum formation. The solution was then treated with charcoal, stirred, cooled to 80° C. and filtered through a porosity 4 sinter. White crystals formed on cooling the filtrate to 25° C. and after storage for 3 days at 5° C., the product was filtered off, washed with water and air dried.
The solution was concentrated to a volume of 30-40 mls, treated with charcoal and filtered through a porosity 4 sinter. A white solid formed when the solution was cool. This was filtered off on a porosity 3 sinter. More white solid was obtained when an equal volume of water was added to the ethanolic filtrate. The purified products were combined, washed with water, ethanol and dried in vacuo.

[1] = aqueous solution, on standing (tendency to darken)

Compound: CCN.CCN.O=C1[O][Pt][O]C1=O [Bis-(ethylamine)oxalatoplatinum(II)]
- T/C (tumour weight in treated mice to that in control mice) (S180 solid tumour): 21%

Compound: CCCN.CCCN.O=C1[O][Pt][O]C1=O [Bis-(n-propylamino)oxalatoplatinum(II), Oxalatobis(n-propylamine)platinum(II)]
- % T/C (L-1210 leukaemia; L1210, daily dose for 9 days @ 15 mg/Kg): 143%
- % T/C (L-1210 leukaemia; L1210, daily dose for 9 days @ 30 mg/Kg): 143%
- % T/C (L-1210 leukaemia; L1210, single dose @ 59 mg/Kg): 129%

Compound: CCCCN.CCCCN.O=C(CCl)[O][Pt][O]C(=O)CCl [Cis-bis (n-butylamine) bis(chloroacetato) platinum (II)]
- % T/C (L-1210 leukaemia; L1210, daily dose for 9 days @ 32 mg/kg): 136%
- % T/C (L-1210 leukaemia; L1210, single dose @ 256 mg/Kg): 107%

Compound: CCCN.CCCN.O=C(CCl)[O][Pt][O]C(=O)CCl [Cis-bis(chloroacetato) bis(n-propylamine)platinum II]
- % T/C (L-1210 leukaemia; L1210, daily dose for 9 days @ 6 mg/Kg): 225%
- % T/C (L-1210 leukaemia; L1210, single dose @ 12 mg/Kg): 167%
- % T/C (L-1210 leukaemia; L1210, single dose @ 24 mg/Kg): 167%

Compound: CCCN.CCCN.[Cl][Pt][Cl] [Cis-bis(n-propylamine)dichloroplatinum(II)]
- % T/C (L-1210 leukaemia; L1210, daily dose for 9 days @ 4 mg/kg): 157%
- % T/C (L-1210 leukaemia; L1210, single dose @ 8 mg/Kg): 157%

Compound: CCCCN.CCCCN.[Cl][Pt][Cl] [Cis-bis-(n-butylamine)dichloroplatinum(II)]
- ID90 (minimum dose to cause 90% tumour inhibition) (ADJ/PC6A tumour): < 10 mg/kg
- LD50 (ADJ/PC6A tumour): 110 mg/kg
- TI (therapeutic index, ratio LD50/ID90) (ADJ/PC6A tumour): > 11

Compound: CCCCN.CCCCN.O=C1[O][Pt][O]C1=O [Example 8, Bis (n-butylamine)oxalatoplatinum(II)]
- stability (stability in solution; boiling 0.1 M potassium oxalate): instability

Compound: CCCCCN.CCCCCN.O=C1[O][Pt][O]C1=O [Example 12, Oxalatobis(n-pentylamine)platinum(II)]
- stability (stability in solution; recrystallisation from hot ethanol): without apparent decomposition

Compound: CCCCCN.CCCCCN.[Cl][Pt][Cl] [cis-dichlorobis(1-aminopentane)platinum(II)]
- ID90 (minimum dose to cause 90% tumour inhibition) (ADJ/PC6A tumour): 37 mg/kg
- LD50 (ADJ/PC6A tumour): 92 mg/kg
- TI (therapeutic index, ratio LD50/ID90) (ADJ/PC6A tumour): 2.5

Compound: n-butylamine diaquo complex [Example 1]
- stability (stability in solution; [1]): slow decomposition to platinum

Compound: n-propylamine diaquo complex [Example 2]
- stability (stability in solution; [1]): slow decomposition to platinum
